Reference: publication PMC5831633 (PLoS ONE, 2018)
Where a name gives a salt, the structure may show the parent alone.

Assays:
[1] = target: N2 neuraminidase (A/Chicken/HongKong/G9/1997 H9N2) (Influenza A virus, UniProt Q80H78); assay type: biochemical; conditions: pH 6.5; read-out: Km for the MUNANA substrate
[2] = target: N1 wild-type neuraminidase (A/Anhui/1/2005 H5N1) (Influenza A virus, UniProt A0A0C5AGB3); assay type: biochemical; conditions: pH 6.5; read-out: Km for the MUNANA substrate
N1 and N2 sialidases = conditions: cited from earlier work

Compound	Km [1]	Km [2]	IC50 (N1 and N2 sialidases)
CC(=O)N[C@H]1[C@H]([C@H](O)[C@H](O)CO)OC(Oc2ccc3c(C)cc(=O)oc3c2)(C(=O)O)C[C@@H]1O (stereo partly drawn) [MUNANA, 2-(4-methylumbelliferyl) α-D-acetylneuraminic acid sodium salt hydrate]	70 ± 6.8 µM	12.8 ± 1.9 µM	–
CCC(CC)OC1C(NC(C)=O)C(NCc2ccc(-c3ccccc3)cc2)C2C(C(=O)O)C12 (stereo not drawn) [Compound 4a]	–	–	10 µM
